US5608084A, “Lactones with antioxidising and hypolipidaemic activity useful in the therapy of the atherosclerosis” (priority 1994, dated 1997)

System: B-100 apolipoprotein
Assay: Relative electrophoretic mobility of oxidized LDL on agarose gel (surface-negative charge of B-100 apolipoprotein)
Type: biochemical, human
Conditions: 10 μM; for REM (%) at 180': 180 minutes; for REM (%) at 180' / REM (%) at 360': native LDL = 0, copper-oxidized LDL with ethanol at 360 minutes = 100; for REM (%) at 360': 360 minutes
Excerpt: The determination of the melting point has been carried out by means of a capillary melting point apparatus Electrothermal, without any correction. The I.R. spectrum has been obtained by means of a Perkin-Elmer rood. 963/G spectrophotometer generally, when not otherwise specified, preparing the specimen in potassium bromide and recording the spectrum between 4000 and 600 nm. […] The mass spectrum has been recorded by using a VG 7070E mass spectrometer, at a 70 eV ionization voltage and with a 6 Kvolt acceleration voltage. […] Chem., 43, 2923, (1978). […] The antioxidant activity has been evaluated through the capability of some lactones of formula I to prevent and/or delay the oxidative modification of the lipoproteins (LDL), caused by a chemical method by incubating native LDL with cupric ions, according to the method described by Steinbrecher U. P. in J. Biol. Chem., 262, 3603-3608, (1987). The evaluation of the oxidation degree of the LDL through the monitoring of the concentration of aldehydes derived from the degradation of the lipidic peroxides and the observation of the modifications of the B-100 apolipoprotein represent the used experimental approach. The antioxidant activity of the lactones has been expressed in terms of duration of the latency period that represents a parameter of the resistance to the oxidation of the LDL. The LDL have been isolated from the human plasma obtained from blood collected, in the presence of EDTA, from healty volunteers fasting from 8 hours according to the method described by Havel H. in J. Clin. Invest., 34, 1345-1353, (1955). The solution, dialyzed in Visking-Serva dialysis tubes at 4° C. for 72 hours in phosphate buffer (PBS) added with EDTA (0.24 mM), has been filtered through a membrane with 0.45μ porosity (Millex HV Filters) and the proteic concentration has been determined according to the method described by Lowry O. et al. in J. Biol. Chem., 193, 265-275, (1951). The solution has been diluted with PBS-EDTA at a concentration of 500 μg protein/ml and the obtained LDL have been incubated at 42° C. for 45 minutes in presence of the lactones solubilized in ethanol (1.7 μl/ml LDL). At the end of the incubation the solutions have been placed on ice for 45 minutes and dialyzed at 4° C. for 36 hours in PBS. The oxidation of the LDL has been carried out with 5 μM cupric sulfate at 37° C. and stopped at the experimental times by cooling at 4° C. and adding 0.24 mM of EDTA. The solutions of LDL have been kept at 4° C. and sheltered from light during the experimental procedure. […] 52, (1978).
The inhibition of the oxidative process has also been qualitatively studied through the evaluation of the modification of the surface-negative charge of the B-100 apolipoprotein by electrophoretic analysis on agarose gel, by using the method described in the kit "Titan gel Multi-slot lipo-17 electrophoresis system" (Cat. no. 3095), manufactured by Helena Laboratories.
The Bio-Phoresis Horizontal Electrophoresis Cell Bio-Rad (Cat. no. 1702900) has been used as electrophoretic cell. The modification of the surface-negative charge of the B-100 apolipoprotein, caused by the oxidation of the LDL, produces an increase of the anionic electrophoretic mobility. Therefore the evaluation of the varying of this electrophoretic datum, mobility in presence of antioxidant substances, represents an indirect measure of the antioxidant capabilities of the claimed compounds as reported by Vanderyse L. et al. in Atherosclerosis, 97, 187-199, (1992). […] The migration of the native LDL is taken as a reference equal to 0 (no electrophoretic migration), while the migration of the band of the copper-oxidized LDL at the time of 360 minutes, only in presence of ethanol, is taken as reference equal to 100.

SMILES	REM (%) at 180'	REM (%) at 360'	lowering of electrophoretic mobility of LDL compared with probucol
CC(C)(Sc1cc(C(C)(C)C)c(O)c(C(C)(C)C)c1)Sc1cc(C(C)(C)C)c(O)c(C(C)(C)C)c1 [Probucol, reference compound]	40%	100%	
Cc1c(C)c2c(c(C)c1O)CCC(C)OC(=O)C(C)(C)CCCO2 (centres unmarked) [Example 3, 6,6,9,13,15,16-Hexamethyl-14-hydroxy-2,8-dioxabicyclo[10.4.0]hexadec-12,14,16-trien-7-one]	15%	30%	remarkably more effective than probucol
CCC1CCc2c(C)c(O)c(C)c(C)c2OCCCC(C)(C)C(=O)O1 (centres unmarked) [Example 6, 9-Ethyl-14-hydroxy-6,6,13,15,16-pentamethyl-2,8-dioxabicyclo[10.4.0]hexadec-12,14,16-trien-7-one]	15%	30%	remarkably more effective than probucol
